Patent US8287923B2, “Compositions and methods for treating immune disorders” (priority 2005, dated 2012)

Tested on: normal human epidermal keratinocytes (NHEK)
Assay: Affymetrix gene array analysis, autoantigen gene expression
Format: cell-based
Method: The gene array experiment was performed at the Core Facility of Genomics of the Medical College of Georgia, according to the instructions of the manufacturer (Affymetrix, Santa Clara, Calif.). Briefly, NHEK and OSC2 cells treated with 100 μM EGCG for different time period were extracted for total RNA, the RNA was processed for probes and hybridized with a cDNA microarray (HuG133A, Affymetrix) which represents 22,283 human series. DNA chips were read with a Hewlett-Packard GeneArray Scanner at a resolution of […] and were analyzed with the GeneSpring software (Silicon Genetics, Redwood City, Calif.). Details of this analysis will be published elsewhere (Hsu et al., manuscript in preparation).
Gene assays provide a valuable tool for studying the broad response of cells to agents, and we have used this approach to compare the differential effects of GTPP on gene expression in NHEK and human oral squamous carcinoma cells (Hsu, et al, manuscript in preparation). […] See also Hsu, S. et al. (2005) JPET 315:805-811, which is incorporated by reference in its entirety.

- RNA polymerase 1 (202692_s-at) expression, normalized (0.5 h, 100 μM): 0.50
- ADPRT [poly(ADP)-ribose polymerase] expression (0.5 h, 100 μM, vs time zero): 3.547 fold
SMILES: O=C(O[C@@H]1Cc2c(O)cc(O)cc2O[C@@H]1c1cc(O)c(O)c(O)c1)c1cc(O)c(O)c(O)c1 [EGCG, (−)-epigallocatechin-3-gallate]
- genes either up- or down-regulated by at least 2-fold (100 uM EGCG, both cell types (NHEK, oral squamous carcinoma cells), 24 hrs post-treatment): approximately 2100 genes
- 60 kDa, SS-A/Ro (210438_x_at) expression, normalized (0.5 h, 100 μM): 0.71
- 60 kDa, SS-A/Ro (212852_s_at) expression, normalized (0.5 h, 100 μM): 0.60
- Ku autoantigen, 80 kDa (208642_s_at) expression, normalized (0.5 h, 100 μM): 1.29
- Ku autoantigen, 80 kDa (208643_s_at) expression, normalized (0.5 h, 100 μM): 2.34
- Nuclear antigen SP100 (202863_at) expression, normalized (0.5 h, 100 μM): 1.72
- Nuclear antigen SP100 (202864_s_at) expression, normalized (0.5 h, 100 μM): 3.12
- Nuclear antigen SP10075 kDa (213226_at) expression, normalized (0.5 h, 100 μM): 3.99
- SS-B/La (201138_s_at) expression, normalized (0.5 h, 100 μM): 0.84
- SS-B/La (201139_s_at) expression, normalized (0.5 h, 100 μM): 0.71
- centromere protein C1 (20473_at) expression, normalized (0.5 h, 100 μM): 1.27
- coilin (203653_s_at) expression, normalized (0.5 h, 100 μM): 0.49
- coilin (203654_s_at) expression, normalized (0.5 h, 100 μM): 1.11
- fodrin-α (208611_s_at) expression, normalized (0.5 h, 100 μM): 0.41
- fodrin-α (215235_s_at) expression, normalized (0.5 h, 100 μM): 0.49
- golgin-67 (208797_s_at) expression, normalized (0.5 h, 100 μM): 1.26
- golgin-67 (208798_x_at) expression, normalized (0.5 h, 100 μM): 0.81
- golgin-67 (210425_x_at) expression, normalized (0.5 h, 100 μM): 0.50
- golgin-67 (213650_at) expression, normalized (0.5 h, 100 μM): 0.24
- scleroderma autoantigen 1, 75 kDa (213226_at) expression, normalized (0.5 h, 100 μM): 3.99
- spectrin-β non-erythrocyctic 1 (212071_s_at) expression, normalized (0.5 h, 100 μM): 0.91
- thyroid autoantigen 70 kDa (Ku antigen) (200792_at) expression, normalized (0.5 h, 100 μM): 1.15
- ANAP12 expression (0.5 h, 100 μM, vs time zero): 0.505 fold
- ANXA11 expression (0.5 h, 100 μM, vs time zero): 1.043 fold
- CALR expression (0.5 h, 100 μM, vs time zero): 0.71 fold
- CBARA1 expression (0.5 h, 100 μM, vs time zero): 0.506 fold
- CENPA expression (0.5 h, 100 μM, vs time zero): 7.677 fold
- CENPB expression (0.5 h, 100 μM, vs time zero): 0.506 fold
- CENPC1 expression (0.5 h, 100 μM, vs time zero): 1.269 fold
- CHD4 expression (0.5 h, 100 μM, vs time zero): 0.766 fold
- COL17A1 expression (0.5 h, 100 μM, vs time zero): 1.749 fold
- CTDSP1 expression (0.5 h, 100 μM, vs time zero): 0.71 fold
- CTDSP2 expression (0.5 h, 100 μM, vs time zero): 1.61 fold
- CTDSPL expression (0.5 h, 100 μM, vs time zero): 2.83 fold
- DLAT expression (0.5 h, 100 μM, vs time zero): 1.54 fold
- EPPK1 expression (0.5 h, 100 μM, vs time zero): 0.793 fold
- FBL expression (0.5 h, 100 μM, vs time zero): 1.64 fold
- FLJ31657 expression (0.5 h, 100 μM, vs time zero): 0.833 fold
- FLNB (Filamin B, β) expression (0.5 h, 100 μM, vs time zero): 1.379 fold
- FLNB (Filamin B, γ) expression (0.5 h, 100 μM, vs time zero): 0.72 fold
- G22P1 (Thyroid autoantigen, 70 kDa, Ku antigen) expression (0.5 h, 100 μM, vs time zero): 1.15 fold
- GMEB2 expression (0.5 h, 100 μM, vs time zero): 0.584 fold
- GOLGA1 expression (0.5 h, 100 μM, vs time zero): 0.398 fold
- GOLGA2 expression (0.5 h, 100 μM, vs time zero): 0.332 fold
- GOLGA3 expression (0.5 h, 100 μM, vs time zero): 0.533 fold
- GOLGA4 expression (0.5 h, 100 μM, vs time zero): 0.822 fold
- GOLGA5 expression (0.5 h, 100 μM, vs time zero): 1.566 fold
- GOLGB1 expression (0.5 h, 100 μM, vs time zero): 0.969 fold
- HARS expression (0.5 h, 100 μM, vs time zero): 1.27 fold
- HARSL expression (0.5 h, 100 μM, vs time zero): 1.12 fold
- HSA6591 expression (0.5 h, 100 μM, vs time zero): 0.456 fold
- HUMAUANTIG expression (0.5 h, 100 μM, vs time zero): 0.948 fold
- IMP-2 expression (0.5 h, 100 μM, vs time zero): 1.615 fold
- LAD1 expression (0.5 h, 100 μM, vs time zero): 0.799 fold
- LMO4 expression (repeat 1) (0.5 h, 100 μM, vs time zero): 0.272 fold
- LMO4 expression (repeat 2) (0.5 h, 100 μM, vs time zero): 0.6 fold
- MGC5560 expression (repeat 1) (0.5 h, 100 μM, vs time zero): 4.392 fold
- MGC5560 expression (repeat 2) (0.5 h, 100 μM, vs time zero): 7.07 fold
- NS (Nucleostemin) expression (0.5 h, 100 μM, vs time zero): 0.634 fold
- PDHB expression (0.5 h, 100 μM, vs time zero): 1.079 fold
- PDX1 expression (0.5 h, 100 μM, vs time zero): 1.103 fold
- PMSCL1, 75 kDa expression (0.5 h, 100 μM, vs time zero): 3.993 fold
- PMSCL2 expression (0.5 h, 100 μM, vs time zero): 0.959 fold
- POLR1B expression (0.5 h, 100 μM, vs time zero): 0.67 fold
- POLR1D expression (0.5 h, 100 μM, vs time zero): 0.90 fold
- POLR2A expression (repeat 1) (0.5 h, 100 μM, vs time zero): 0.13 fold
- POLR2A expression (repeat 2) (0.5 h, 100 μM, vs time zero): 1.03 fold
- POLR2B expression (0.5 h, 100 μM, vs time zero): 1.83 fold
- POLR2C expression (0.5 h, 100 μM, vs time zero): 1.32 fold
- POLR2D expression (0.5 h, 100 μM, vs time zero): 1.14 fold
- POLR2E expression (0.5 h, 100 μM, vs time zero): 0.45 fold
- POLR2F expression (0.5 h, 100 μM, vs time zero): 0.90 fold
- POLR2G expression (0.5 h, 100 μM, vs time zero): 1.09 fold
- POLR2H expression (0.5 h, 100 μM, vs time zero): 0.88 fold
- POLR3C expression (0.5 h, 100 μM, vs time zero): 0.90 fold
- POLR3G expression (0.5 h, 100 μM, vs time zero): 1.55 fold
- PSME3 expression (0.5 h, 100 μM, vs time zero): 2.554 fold
- RALY expression (0.5 h, 100 μM, vs time zero): 1.556 fold
- SART1 expression (0.5 h, 100 μM, vs time zero): 1.982 fold
- SLC25A16 expression (0.5 h, 100 μM, vs time zero): 1.022 fold
- SNRP70 expression (0.5 h, 100 μM, vs time zero): 3.59 fold
- SNRPA expression (0.5 h, 100 μM, vs time zero): 1.29 fold
- SNRPB2 expression (0.5 h, 100 μM, vs time zero): 0.49 fold
- SNRPB expression (repeat 1) (0.5 h, 100 μM, vs time zero): 0.96 fold
- SNRPB expression (repeat 2) (0.5 h, 100 μM, vs time zero): 0.62 fold
- SNRPC expression (0.5 h, 100 μM, vs time zero): 1.28 fold
- SNRPD1 expression (repeat 1) (0.5 h, 100 μM, vs time zero): 2.098 fold
- SNRPD1 expression (repeat 2) (0.5 h, 100 μM, vs time zero): 0.755 fold
- SOX13 expression (0.5 h, 100 μM, vs time zero): 1.304 fold
- SP100 expression (repeat 1) (0.5 h, 100 μM, vs time zero): 1.72 fold
- SP100 expression (repeat 2) (0.5 h, 100 μM, vs time zero): 3.123 fold
- SP110 expression (repeat 1) (0.5 h, 100 μM, vs time zero): 5.725 fold
- SP110 expression (repeat 2) (0.5 h, 100 μM, vs time zero): 4.176 fold
- SP110 expression (repeat 3) (0.5 h, 100 μM, vs time zero): 1.149 fold
- SPTAN1 (α-fodrin) expression (repeat 1) (0.5 h, 100 μM, vs time zero): 0.41 fold
- SPTAN1 (α-fodrin) expression (repeat 2) (0.5 h, 100 μM, vs time zero): 0.49 fold
- SPTBN expression (0.5 h, 100 μM, vs time zero): 0.91 fold
- SSA2 (autoantigen SS-A/Ro) expression (repeat 2) (0.5 h, 100 μM, vs time zero): 0.709 fold
- SSA2 expression (repeat 1) (0.5 h, 100 μM, vs time zero): 1.009 fold
- SSA2 expression (repeat 3) (0.5 h, 100 μM, vs time zero): 0.505 fold
- SSA2 expression (repeat 4) (0.5 h, 100 μM, vs time zero): 0.596 fold
- SSB (autoantigen La) expression (repeat 1) (0.5 h, 100 μM, vs time zero): 0.838 fold
- SSB (autoantigen La) expression (repeat 2) (0.5 h, 100 μM, vs time zero): 0.711 fold
- SSNA1 expression (0.5 h, 100 μM, vs time zero): 1.354 fold
- SSSCA1 expression (0.5 h, 100 μM, vs time zero): 1.267 fold
- STRN3 expression (0.5 h, 100 μM, vs time zero): 0.425 fold
- TOP1 expression (repeat 1) (0.5 h, 100 μM, vs time zero): 0.85 fold
- TOP1 expression (repeat 2) (0.5 h, 100 μM, vs time zero): 0.62 fold
- UBTF expression (0.5 h, 100 μM, vs time zero): 0.498 fold
- XRCC5 (Ku autoantigen, 80 kDa) expression (repeat 1) (0.5 h, 100 μM, vs time zero): 2.338 fold
- XRCC5 (Ku autoantigen, 80 kDa) expression (repeat 2) (0.5 h, 100 μM, vs time zero): 1.87 fold
- dJ963E22.1 expression (0.5 h, 100 μM, vs time zero): 1.842 fold
- α-NAC expression (0.5 h, 100 μM, vs time zero): 0.632 fold
